Results: PMC8826726, “Selective Toxicity of Secondary Metabolites from the Entomopathogenic Bacterium Photorhabdus luminescens sonorensis against Selected Plant Parasitic Nematodes of the Tylenchina Suborder” (Microbiology Spectrum, 2022)
Converted amounts (≈) assume the structure as drawn. Read-outs that look alike come from different tables or passages of the source.

Columns and labels:
H. sonorensis = test: In vitro nematistatic assay (temporary paralysis), non-target species; type: cell-based; details: Heterorhabditis sonorensis; reversible paralysis, 24 h exposure
R. blumi [1] = test: in vitro; details: data not shown
Excerpt: (§1) The non-target species, C. elegans wild-type strain N2 Bristol (courtesy of Dr. G.L. Sutphin, University of Arizona) and Rhabditis blumi DF5010 (Caenorhabditis Genetics Center, University of MN, USA) were maintained in vitro in nematode growth medium (NGM) agar plates seeded with Escherichia coli (Migula) Castellani and Chalmers, strain OP-50, as described previously ([52]). Mixed juveniles and hermaphrodites (5 to 6 days old) were collected from the culture plates prior to the bioassays. Infective third-stage juveniles (IJs) of three non-target entomopathogenic nematode species (H. sonorensis Caborca strain, H. bacteriophora TT01 strain, and Steinernema carpocapsae All strain) were also maintained by rearing them in vivo using wax moth larvae (Galleria mellonella) as the host, according to procedures described previously ([53]), and collected for bioassays within 2 to 4 days of their emergence from nematode-infected cadavers. Nematode population density (number of nematodes per ml) was standardized prior to setting up well-plate bioassays, by adjusting each nematode suspension to a concentration of 100 nematodes in 20 μL of distilled water.
(§2) Twelve-well tissue culture plates were used as the experimental arena. For each of the tested nematode species, an inoculum of 100 nematodes, suspended in 20 μL distilled water, was added to each well. […] For PPA (Enamine) and indole (Alfa Aesar), 13 incremental concentrations were tested ranging from 10 to 400 μg/mL in 1 mL of distilled water (DMSO ≤ 1%; vol/vol). […] Distilled water with 1% DMSO was used as the negative control. To measure the combined nematicidal effects of the three SMs, equal concentrations of two or three SMs were mixed in 1:1 or 1:1:1 mixture. For example, a 20 μg/mL solution of a two-SM mixture contained 20 μg from metabolite A and 20 μg metabolite B, dissolved in 1 mL distilled water. Individual or combined SMs from 10 μg/mL to 200 μg/mL (in 20 μg/ml increments) were prepared in distilled water (DMSO ≤ 1%; vol/vol) and used for the bioassays.
(§3) The well plates were covered with their lids and incubated at 25°C in the dark. For the targeted nematode species, nematicidal activity was recorded at 24 h, 48 h, and 72 h after initial exposure to the individual SMs. For the non-target species, data were only recorded at 24 h after initial exposure to the individual SMs. For SM mixtures, mortality was recorded 24 h after initial exposure of the targeted nematode species. Nematodes were probed with a needle to assess if they were alive, dead, or paralyzed. […] Those nematodes that resumed activity upon probing were considered to suffer from temporary paralysis (impaired motility). Paralyzed nematodes were rinsed at least three times in distilled water and held for an additional 24 h to check for their recovery from temporarily paralysis. […] Experiments were repeated at least three times per treatment for each concentration tested.
(§4) For the toxicity data visualization, the relationship between percent mortality or temporary paralysis and metabolite concentration were described by a sigmoidal curve, which was fitted by the logistical function using the statistical software package SigmaPlot for Windows, version 14.0 (Systat Software Inc.). […] Concentration-response data of single metabolites or SM mixtures were pooled for each concentration and subjected to probit regression analysis using the Polo Plus program (LeOra Software). The LC or EC values, along with the corresponding 95% confidence intervals, were estimated for each single SM or SM mixture at each exposure time, depending on the experimental setting.

C. elegans [2] = test: in vitro; details: data not shown
Excerpt: as §1, §2, §3, §4

C. elegans [3] = test: In vitro nematistatic assay (temporary paralysis), non-target species; type: cell-based; details: Caenorhabditis elegans; reversible paralysis, 24 h exposure
[4] = system: HFF cells (human foreskin cells); test: MTT cytotoxicity assay; type: cell-based; details: tested at 50, 100, 200 μM, data not shown
Description: The non-cancerous HFF cells (human foreskin cells) and three human cancer cell lines, NCI-H460 (non-small cell lung cancer), SF-268 (central nervous system glioma), and MCF-7 (breast cancer) were used to evaluate the in vitro cytotoxicity of the isolated Photorhabdus SMs. The MTT (3-(4,5-dimethylthiazol-2-yl)-2,5-diphenyltetrazolium bromide) colorimetric method ([54]) was used with doxorubicin as the positive control, and DMSO as the negative control. Photorhabdus SMs were tested at 50, 100, and 200 μM concentrations, and the assays were repeated three times.

S. carpocapsae = test: In vitro nematistatic assay (temporary paralysis), non-target species; type: cell-based; details: Steinernema carpocapsae; reversible paralysis, 24 h exposure
[5] = system: non-target nematodes versus targeted PPNs; test: Selectivity index, non-target nematodes over targeted PPNs
Description: The selectivity index of a given SM was calculated by dividing the averages of the LC50 or EC50 values obtained against each of the selected non-target nematodes by the LC50 or the EC50 values observed for each of the targeted PPN tested.

R. blumi [6] = test: In vitro nematistatic assay (temporary paralysis), non-target species; type: cell-based, Rhabditis blumi
[7] = system: Meloidogyne incognita J2 juveniles; test: In vitro nematistatic assay (temporary paralysis); type: cell-based
[8] = system: Tylenchulus semipenetrans J2 juveniles; test: In vitro nematistatic assay (temporary paralysis); type: cell-based; details: for EC50 / EC90 / EC10 / EC25: temporary paralysis

Structure (SMILES): c1ccc2[nH]ccc2c1 [Indole, indole]
- EC50 (H. sonorensis): > 400 mg/L
- Concentrations showing nematicidal activity (R. blumi [1]): ≥ 300 µg/mL
- Concentrations showing nematicidal activity (C. elegans [2]): ≥ 300 µg/mL
- EC50 (C. elegans [3]): 159 mg/L (≈ 1360 µM)
- In vitro cytotoxicity: none even at the highest concentration tested [4]: > 200 µM
- EC50 (S. carpocapsae): > 400 mg/L
- Selectivity index (EC50), bacteria-feeding nematodes alone ([5]; 24 h EC50): 2–3
- Selectivity index (EC50), entomopathogenic nematodes alone ([5]; 24 h EC50): 7-11
- Selectivity index (EC50), selected non-target nematode species ([5]; 24 h EC50, all non-target species): 5–8
- Reduction of 24-h EC50 against R. blumi versus C. elegans (R. blumi [6]; 24 h): 77%
- EC50 (R. blumi [6]; Metarhabditis blumi, reversible paralysis, 24 h exposure): 37 mg/L (≈ 316 µM)
- EC10 ([7]; 24 h exposure): 41.3 (36.8, 44.9) μg/mL
- EC25 ([7]; 24 h exposure): 47.8 (43.9, 51.1) μg/mL
- EC50 ([7]; 24 h exposure): 56.3 mg/L (≈ 481 µM)
- EC10 ([7]; 48 h exposure): 44.3 (36.8, 49.7) μg/mL
- EC25 ([7]; 48 h exposure): 51.7 (45.0, 56.6) μg/mL
- EC10 ([7]; 72 h exposure): 62.9 (31.4, 72.3) μg/mL
- EC25 ([7]; 72 h exposure): 68.9 (42.1, 76.9) μg/mL
- EC50 ([7]; Meloidogyne incognita, 24 h, 24 h exposure, read-out: EC50): 56 mg/L (≈ 478 µM)
- EC90 ([7]; Meloidogyne incognita, 24 h exposure): 77 mg/L (≈ 657 µM)
- EC50 ([7]; Meloidogyne incognita, 48 h, 48 h exposure, read-out: EC50): 61.3 mg/L (≈ 523 µM)
- EC90 ([7]; Meloidogyne incognita, 48 h exposure): 84.7 mg/L (≈ 723 µM)
- EC50 ([7]; Meloidogyne incognita, 72 h, 72 h exposure, read-out: EC50): 76.3 mg/L (≈ 651 µM)
- EC90 ([7]; Meloidogyne incognita, 72 h exposure): 92.5 mg/L (≈ 790 µM)
- Reduction of EC50 for T. semipenetrans versus M. incognita ([8]; 24 h of exposure): 34%
- Increase of EC50 at 72 h compared with 24 h ([8]; T. semipenetrans): 84%
- Increase of EC90 at 72 h compared with 24 h ([8]; T. semipenetrans): 79%
- EC50 ([8]; Tylenchulus semipenetrans, 24 h, 24 h exposure, read-out: EC50): 37 mg/L (≈ 316 µM)
- EC50 ([8]; Tylenchulus semipenetrans, 48 h, 48 h exposure, read-out: EC50): 66.2 mg/L (≈ 565 µM)
- EC50 ([8]; Tylenchulus semipenetrans, 72 h, 72 h exposure, read-out: EC50): 68.3 mg/L (≈ 583 µM)
- EC90 ([8]; Tylenchulus semipenetrans, 24 h exposure): 64.2 mg/L (≈ 548 µM)
- EC90 ([8]; Tylenchulus semipenetrans, 48 h exposure): 108 mg/L (≈ 922 µM)
- EC90 ([8]; Tylenchulus semipenetrans, 72 h exposure): 115 mg/L (≈ 982 µM)
- EC10 ([8]; 24 h exposure): 21.4 (12.8, 27.9) μg/mL
- EC25 ([8]; 24 h exposure): 27.8 (18.9, 34.2) μg/mL
- EC50 ([8]; 24 h exposure): 37.1 mg/L (≈ 317 µM)
- EC10 ([8]; 48 h exposure): 40.6 (8.18, 57.5) μg/mL
- EC25 ([8]; 48 h exposure): 51.2 (16.1, 67.0) μg/mL
- EC10 ([8]; 72 h exposure): 40.5 (13.1, 55.8) μg/mL
- EC25 ([8]; 72 h exposure): 51.9 (23.3, 66.0) μg/mL
